Measured values reported in patent US20140205553A1, “AGENT FOR ENHANCING THE EFFECT OF SKIN-WHITENING INGREDIENTS AND USES THEREOF” (Hayashibara Co., Ltd., priority 2010, published 2014).
Read-outs that look alike come from different tables or passages of the source.

System: mouse B16 melanoma cells
Experiment: Melanin formation by mouse B16 melanoma cells cultured with test samples (melanin content, absorbance 450 nm)
Format: cell-based
Protocol: The effect of nucleic-acid-related compounds on melanin-formation inhibition was evaluated by using mouse B16 melanoma cells frequently used as an index for evaluating skin-whitening agents used in external dermatological agents. Since nucleic-acid-related compounds are roughly classified into purine and pyrimidine compounds, the following respective representative compounds were used as test samples. […] Thereafter, cells were collected after adding trypsin-EDTA to each well and subjecting the resultant to centrifugation. The collected cells were washed once with Dulbecco's PBS (-) (abbreviated as “D-PBS”, hereinafter) and centrifuged to remove the supernatant. To the remaining cell pellet was added 0.5 ml of 1N sodium hydroxide to solubilize the cells. The resulting alkali-solubilized solution was boiled for 30 min and determined for melanin content by the following method. […] Each of these wells was assayed for melanin content similarly as above. […] In this and the following experiments, it means that the lower the melanin formation percentage, the higher the melanin-formation inhibitory effect, i.e., the skin-whitening effect.

[1] = test sample 1 μM in liquid culture medium, 5 days, negative control = 100
[2] = test sample 5 μM in liquid culture medium, 5 days, negative control = 100
[3] = Experiment 1, test sample 10 μM
[4] = Mus musculus, B16, 120 h, molar ratio guanine:adenine or equol 0:1, total concentration 5 μM, read-out: Melanin formation percentage
[5] = Mus musculus, B16, 120 h, test sample 2.5 μM in liquid culture medium, 5 days, negative control = 100, read-out: Melanin formation percentage
[6] = Mus musculus, B16, 120 h, test sample 5 μM in liquid culture medium, 5 days, negative control = 100, read-out: Melanin formation percentage
[7] = Mus musculus, B16, 120 h, test sample 10 μM in liquid culture medium, 5 days, negative control = 100, read-out: Melanin formation percentage
[8] = Mus musculus, B16, 120 h, test sample 20 μM in liquid culture medium, 5 days, negative control = 100, read-out: Melanin formation percentage
[9] = Experiment 2, test sample 5 μM alone
[10] = Mus musculus, B16, 120 h, test sample 1 μM in liquid culture medium, 5 days, negative control = 100, read-out: Melanin formation percentage
[11] = test sample 10 μM in liquid culture medium, 5 days, negative control = 100
[12] = test sample 20 μM in liquid culture medium, 5 days, negative control = 100

## OC[C@H]1O[C@H](Oc2ccc([C@H]3COc4cc(O)ccc4C3)cc2)[C@H](O)[C@@H](O)[C@@H]1O [4′-Glucosyl-S-equol, 4′-O-α-D-glycopyranosyl-S-equol]
[1]
  Melanin formation percentage: 85%
[2]
  Melanin formation percentage: 74%

## OC[C@H]1O[C@H](Oc2ccc3c(c2)OC[C@H](c2ccc(O)cc2)C3)[C@H](O)[C@@H](O)[C@@H]1O [7-Glucosyl-S-equol, 7-O-α-D-glycopyranosyl-S-equol]
[1]
  Melanin formation percentage: 85%
[2]
  Melanin formation percentage: 75%

## Nc1ncnc2nc[nH]c12 [Adenine]
[3]
  Melanin-formation inhibition (in words): inhibited
[4]
  activity at 5 µM: 83%
[5]
  activity at 2.5 µM: 95%
[6]
  activity at 5 µM: 83%
[7]
  activity at 10 µM: 60%
[8]
  activity at 20 µM: 39%

## Nc1ncnc2c1ncn2[C@@H]1O[C@H](COP(=O)(O)OP(=O)(O)O)[C@@H](O)[C@H]1O [Adenosine 5′-diphosphate, adenosine 5′-diphosphate]
[6]
  activity at 5 µM: 93%
[7]
  activity at 10 µM: 81%
[8]
  activity at 20 µM: 51%

## Nc1ncnc2c1ncn2[C@@H]1O[C@H](COP(=O)(O)O)[C@@H](O)[C@H]1O [Adenosine 5′-monophosphate, adenosine 5′-monophosphate]
[5]
  activity at 2.5 µM: 97%
[6]
  activity at 5 µM: 100%
[7]
  activity at 10 µM: 82%
[8]
  activity at 20 µM: 60%

## Nc1ncnc2c1ncn2[C@@H]1O[C@H](COP(=O)(O)OP(=O)(O)OP(=O)(O)O)[C@@H](O)[C@H]1O [Adenosine 5′-triphosphate, adenosine 5′-triphosphate]
[6]
  activity at 5 µM: 93%
[7]
  activity at 10 µM: 80%
[8]
  activity at 20 µM: 53%

## Nc1ncnc2c1ncn2[C@@H]1O[C@H](CO)[C@@H](O)[C@H]1O [Adenosine, adenosine]
[5]
  activity at 2.5 µM: 98%
[6]
  activity at 5 µM: 94%
[7]
  activity at 10 µM: 71%
[8]
  activity at 20 µM: 48%

## Nc1cc[nH]c(=O)n1 [Cytosine, reference compound]
[3]
  Melanin-formation inhibition (in words): no melanin-formation inhibition was observed
[9]
  Melanin-formation inhibition (in words): No melanin-formation inhibition was found
[6]
  activity at 5 µM: 98%
[7]
  activity at 10 µM: 100%

## Oc1ccc([C@H]2COc3cc(O)ccc3C2)cc1 [Equol, equol]
[4]
  activity at 5 µM: 91%
[10]
  activity at 1 µM: 91%
[6]
  activity at 5 µM: 67%
skin-whitening ingredient together with guanine including derivatives or other nucleic-acid-related compound
  Enhancement of the skin-whitening (melanin-formation-inhibitory) action in combination (in words): enhanced

## Nc1nc2nc[nH]c2c(=O)[nH]1 [Guanine]
[3]
  Melanin-formation inhibition (in words): no melanin-formation inhibition was observed
[9]
  Melanin-formation inhibition (in words): No melanin-formation inhibition was found
Mus musculus, B16, 120 h, read-out: Melanin formation percentage, molar ratio guanine:adenine or equol 1:0, total concentration 5 μM
  activity at 5 µM: 98%
Mus musculus, B16, 120 h, read-out: Melanin formation percentage, test sample 1 μM in liquid culture medium, 5 days, negative control = 100
  activity at 1 µM: 100%
Mus musculus, B16, 120 h, read-out: Melanin formation percentage, test sample 2.5 μM in liquid culture medium, 5 days, negative control = 100
  activity at 2.5 µM: 99%
Mus musculus, B16, 120 h, read-out: Melanin formation percentage, test sample 5 μM in liquid culture medium, 5 days, negative control = 100
  activity at 5 µM: 98%
Mus musculus, B16, 120 h, read-out: Melanin formation percentage, test sample 10 μM in liquid culture medium, 5 days, negative control = 100
  activity at 10 µM: 98%
Mus musculus, B16, 120 h, read-out: Melanin formation percentage, test sample 20 μM in liquid culture medium, 5 days, negative control = 100
  activity at 20 µM: 101%

## Nc1nc2c(ncn2[C@@H]2O[C@H](COP(=O)(O)OP(=O)(O)O)[C@@H](O)[C@H]2O)c(=O)[nH]1 [Guanosine 5′-diphosphate, guanosine 5′-diphosphate]
[6]
  activity at 5 µM: 93%
[7]
  activity at 10 µM: 100%
[8]
  activity at 20 µM: 95%

## Nc1nc2c(ncn2[C@@H]2O[C@H](COP(=O)(O)O)[C@@H](O)[C@H]2O)c(=O)[nH]1 [Guanosine 5′-monophosphate, guanosine 5′-monophosphate]
[10]
  activity at 1 µM: 99%
[5]
  activity at 2.5 µM: 99%
[6]
  activity at 5 µM: 100%
[7]
  activity at 10 µM: 101%
[8]
  activity at 20 µM: 101%

## Nc1nc2c(ncn2[C@@H]2O[C@H](COP(=O)(O)OP(=O)(O)OP(=O)(O)O)[C@@H](O)[C@H]2O)c(=O)[nH]1 [Guanosine 5′-triphosphate, guanosine 5′-triuphosphate]
[2]
  Melanin formation percentage: 95%
[11]
  Melanin formation percentage: 98%
[12]
  Melanin formation percentage: 97%

## Nc1nc2c(ncn2[C@@H]2O[C@H](CO)[C@@H](O)[C@H]2O)c(=O)[nH]1 [Guanosine, guanosine]
[10]
  activity at 1 µM: 99%
[5]
  activity at 2.5 µM: 98%
[6]
  activity at 5 µM: 98%
[7]
  activity at 10 µM: 102%
[8]
  activity at 20 µM: 97%

## O=c1[nH]cnc2nc[nH]c12 [Hypoxanthine, reference compound]
[3]
  Melanin-formation inhibition (in words): no melanin-formation inhibition was observed
[9]
  Melanin-formation inhibition (in words): No melanin-formation inhibition was found
[6]
  activity at 5 µM: 97%
[7]
  activity at 10 µM: 97%

## OC[C@H]1O[C@@H](n2cnc3c(O)ncnc32)[C@H](O)[C@@H]1O [Inosine, reference compound]
[3]
  Melanin-formation inhibition (in words): no melanin-formation inhibition was observed
[9]
  Melanin-formation inhibition (in words): No melanin-formation inhibition was found
[6]
  activity at 5 µM: 98%
[7]
  activity at 10 µM: 96%

## O=c1cc(CO)occ1O [Kojic acid, reference compound]
Mus musculus, B16, 120 h, test sample 500 μM in liquid culture medium, 5 days, negative control = 100, read-out: Melanin formation percentage
  activity at 500 µM: 71%
Mus musculus, B16, 120 h, test sample 1000 μM in liquid culture medium, 5 days, negative control = 100, read-out: Melanin formation percentage
  activity at 1000 µM: 49%
Mus musculus, B16, 120 h, test sample 2000 μM in liquid culture medium, 5 days, negative control = 100, read-out: Melanin formation percentage
  activity at 2000 µM: 30%
At the concentrations used in the experiment
  Melanin-formation-inhibitory action of the test sample alone (in words): inhibited the melanin formation by mouse B16 melanoma cells in a concentration dependent manner

## Oc1ccc([C@@H]2COc3cc(O)ccc3C2)cc1 [R-Equol, R-equol]
[1]
  Melanin formation percentage: 94%
[2]
  Melanin formation percentage: 77%

## Oc1ccc([C@H]2COc3cc(O)ccc3C2)cc1 [S-Equol, S-equol]
[1]
  Melanin formation percentage: 86%
[2]
  Melanin formation percentage: 60%

## Cc1c[nH]c(=O)[nH]c1=O [Thymine, reference compound]
[3]
  Melanin-formation inhibition (in words): no melanin-formation inhibition was observed
[9]
  Melanin-formation inhibition (in words): No melanin-formation inhibition was found
[6]
  activity at 5 µM: 99%
[7]
  activity at 10 µM: 97%

## O=c1cc[nH]c(=O)[nH]1 [Uracil, reference compound]
[3]
  Melanin-formation inhibition (in words): no melanin-formation inhibition was observed
[9]
  Melanin-formation inhibition (in words): No melanin-formation inhibition was found
[6]
  activity at 5 µM: 98%
[7]
  activity at 10 µM: 99%

## O=c1[nH]c(=O)c2[nH]cnc2[nH]1 [Xanthine, reference compound]
[3]
  Melanin-formation inhibition (in words): no melanin-formation inhibition was observed
[9]
  Melanin-formation inhibition (in words): No melanin-formation inhibition was found
[6]
  activity at 5 µM: 100%
[7]
  activity at 10 µM: 100%

## glucosyladenosine
[2]
  Melanin formation percentage: 89%
[11]
  Melanin formation percentage: 63%
[12]
  Melanin formation percentage: 43%

## glucosylguanosine
[1]
  Melanin formation percentage: 99%
Test sample 2.5 μM in liquid culture medium, 5 days, negative control = 100
  Melanin formation percentage: 98%
[2]
  Melanin formation percentage: 98%
[11]
  Melanin formation percentage: 99%
[12]
  Melanin formation percentage: 99%
